Measured values as given in US20190322676A1, “CERAMIDE GALACTOSYLTRANSFERASE INHIBITORS FOR THE TREATMENT OF DISEASE” (BioMarin Pharmaceutical Inc., priority 2016, published 2019).
Where a name gives a salt, the structure may show the parent alone.

Target: T1, human CGT (ceramide galactosyltransferase), CHO/CGT lysate (Homo sapiens, UniProt Q16880)
T1 construct: Full-length human CGT cDNA was cloned into the BamH1/Xho1 site of pcDNA3.1 (+); expressed in transfected cells; host or cells: Chinese hamster ovary (CHO) cells; lysate prepared with M-PER
T1 sequence (Q16880 21-541): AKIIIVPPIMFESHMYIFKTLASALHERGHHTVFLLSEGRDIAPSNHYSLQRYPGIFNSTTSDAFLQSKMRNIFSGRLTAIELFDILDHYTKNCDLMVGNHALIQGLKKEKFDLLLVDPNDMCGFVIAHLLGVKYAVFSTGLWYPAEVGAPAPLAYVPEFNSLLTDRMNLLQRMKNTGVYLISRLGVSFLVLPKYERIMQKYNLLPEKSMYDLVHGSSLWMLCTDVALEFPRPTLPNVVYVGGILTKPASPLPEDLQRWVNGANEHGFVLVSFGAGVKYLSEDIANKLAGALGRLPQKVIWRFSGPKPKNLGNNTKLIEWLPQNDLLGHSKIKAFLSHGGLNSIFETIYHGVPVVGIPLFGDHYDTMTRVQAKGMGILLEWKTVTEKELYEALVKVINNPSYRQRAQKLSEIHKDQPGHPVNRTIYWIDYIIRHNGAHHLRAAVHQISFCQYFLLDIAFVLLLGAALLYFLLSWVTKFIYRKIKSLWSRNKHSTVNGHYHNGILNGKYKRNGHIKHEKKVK
Test: CGT enzyme assay, RapidFire/MS/MS readout (Table 1 ranges with one asterisk *)
Assay type: biochemical
Settings: RapidFire method (range with one asterisk *)
How it was run: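 Lysate (4 μg) of CHO cells transfected with full-length human CGT incubated 1 h at 37 °C with compound (0.001–50 μM) in pH 7.2 HEPES buffer with 10 μM C6-NBD-dihydro-ceramide, 17.5 μM UDP-galactose, Mg2+/Mn2+, CHAPS, BSA, 0.5% DMSO; ** set also contained 0.01% Tween 80. Product quantified by RapidFire/MS/MS, normalized to internal standard; IC50 from sigmoidal variable-slope fits.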

| Compound | IC50 [µM] |
| --- | --- |
| NC1CC2CCC(C1)N2C(=O)[C@@H](NC(=O)[C@H](O)c1ccc2cc(OC3CCCC3)ccc2c1)C(F)(F)c1ccc(-c2ccc(Cl)cc2)cc1 (stereo partly drawn) [Compound 136-1, (2R)—N-((2R)-3-(3-amino-8-azabicyclo[3.2.1]octan-8-yl)-1-(4′-chloro-[1,1′-biphenyl]-4-yl)-1,1-difluoro-3-oxopropan-2-yl)-2-(6-(cyclopentyloxy)naphthalen-2-yl)-2-hydroxyacetamide trifluoroacetate] | 1 to 10 |
| NC1CC2CCC(C1)N2C(=O)[C@H](NC(=O)[C@@H](O)c1ccc2cc(OC3CCCC3)ccc2c1)C(F)(F)c1ccc(-c2ccc(Cl)cc2)cc1 (stereo partly drawn) [Compound 136-2, (2S)—N-((2S)-3-(3-amino-8-azabicyclo[3.2.1]octan-8-yl)-1-(4′-chloro-[1,1′-biphenyl]-4-yl)-1,1-difluoro-3-oxopropan-2-yl)-2-(6-(cyclopentyloxy)naphthalen-2-yl)-2-hydroxyacetamide trifluoroacetate] | 30 to 100 |
| NC1CC2CCC(C1)N2C(=O)[C@H](NC(=O)[C@H](O)c1ccc2cc(OC3CCCC3)ccc2c1)C(F)(F)c1ccc(-c2ccc(Cl)cc2)cc1 (stereo partly drawn) [Compound 136-4, (2R)—N-((2S)-3-(3-amino-8-azabicyclo[3.2.1]octan-8-yl)-1-(4′-chloro-[1,1′-biphenyl]-4-yl)-1,1-difluoro-3-oxopropan-2-yl)-2-(6-(cyclopentyloxy)naphthalen-2-yl)-2-hydroxyacetamide trifluoroacetate] | 30 to 100 |
| N[C@H]1CCN(C(=O)[C@H](NS(=O)(=O)c2ccc3cc(OC4CCCC4)ccc3c2)C(F)(F)c2ccc(Br)cc2)C1 [Compound 140-2, N—((S)-3-((S)-3-aminopyrrolidin-1-yl)-1-(4-bromophenyl)-1,1-difluoro-3-oxopropan-2-yl)-6-(cyclopentyloxy)naphthalene-2-sulfonamide] | 10 to 30 |
| NC1CCN(C(=O)[C@H](NC(=O)[C@@H](O)c2ccc(OCC3CCCCC3)cc2)C(F)(F)c2ccc(-c3ccc(Cl)cc3)cc2)CC1 [Compound 141-2, (S)—N—((S)-3-(4-aminopiperidin-1-yl)-1-(4′-chloro-[1,1′-biphenyl]-4-yl)-1,1-difluoro-3-oxopropan-2-yl)-2-(4-(cyclohexylmethoxy)phenyl)-2-hydroxyacetamide trifluoroacetate] | 10 to 30 |
| NC1CCN(C(=O)[C@H](NC(=O)[C@H](O)c2ccc(OCC3CCCCC3)cc2)C(F)(F)c2ccc(-c3ccc(Cl)cc3)cc2)CC1 [Compound 141-4, (R)—N—((S)-3-(4-aminopiperidin-1-yl)-1-(4′-chloro-[1,1′-biphenyl]-4-yl)-1,1-difluoro-3-oxopropan-2-yl)-2-(4-(cyclohexylmethoxy)phenyl)-2-hydroxyacetamide trifluoroacetate] | 30 to 100 |

Other lines, results leading:

| IC50 [µM] | Compound |
| --- | --- |
| 1 to 10 | O=C([C@@H](NS(=O)(=O)c1ccc2cc(OC3CCCC3)ccc2c1)C(F)(F)c1ccc(-c2ccc(Cl)cc2)cc1)N1CCNCC1 [Compound 137-1, (R)—N-(1-(4′-chloro-[1,1′-biphenyl]-4-yl)-1,1-difluoro-3-oxo-3-(piperazin-1-yl)propan-2-yl)-6-(cyclopentyloxy)naphthalene-2-sulfonamide trifluoroacetate] |
| 10 to 30 | O=C([C@H](NS(=O)(=O)c1ccc2cc(OC3CCCC3)ccc2c1)C(F)(F)c1ccc(-c2ccc(Cl)cc2)cc1)N1CCNCC1 [Compound 137-2, (S)—N-(1-(4′-chloro-[1,1′-biphenyl]-4-yl)-1,1-difluoro-3-oxo-3-(piperazin-1-yl)propan-2-yl)-6-(cyclopentyloxy)naphthalene-2-sulfonamide trifluoroacetate] |
| < 1 | NCC1CCN(C(=O)[C@@H](NS(=O)(=O)c2ccc3cc(OC4CCCC4)ccc3c2)C(F)(F)c2ccc(-c3ccc(Cl)cc3)cc2)CC1 [Compound 138-1, (R)—N-(3-(4-(aminomethyl)piperidin-1-yl)-1-(4′-chloro-[1,1′-biphenyl]-4-yl)-1,1-difluoro-3-oxopropan-2-yl)-6-(cyclopentyloxy)naphthalene-2-sulfonamide trifluoroacetate] |
| 1 to 10 | NCC1CCN(C(=O)[C@H](NS(=O)(=O)c2ccc3cc(OC4CCCC4)ccc3c2)C(F)(F)c2ccc(-c3ccc(Cl)cc3)cc2)CC1 [Compound 138-2, (S)—N-(3-(4-(aminomethyl)piperidin-1-yl)-1-(4′-chloro-[1,1′-biphenyl]-4-yl)-1,1-difluoro-3-oxopropan-2-yl)-6-(cyclopentyloxy)naphthalene-2-sulfonamide trifluoroacetate] |
| < 1 | N[C@@H]1CCN(C(=O)[C@@H](NS(=O)(=O)c2ccc3cc(OC4CCCC4)ccc3c2)C(F)(F)c2ccc(Br)cc2)C1 [Compound 139-1, N—((R)-3-((R)-3-aminopyrrolidin-1-yl)-1-(4-bromophenyl)-1,1-difluoro-3-oxopropan-2-yl)-6-(cyclopentyloxy)naphthalene-2-sulfonamide] |
| 1 to 10 | N[C@@H]1CCN(C(=O)[C@H](NS(=O)(=O)c2ccc3cc(OC4CCCC4)ccc3c2)C(F)(F)c2ccc(Br)cc2)C1 [Compound 139-2, N—((S)-3-((R)-3-aminopyrrolidin-1l-yl)-1-(4-bromophenyl)-1,1-difluoro-3-oxopropan-2-yl)-6-(cyclopentyloxy)naphthalene-2-sulfonamide] |
| 1 to 10 | N[C@H]1CCN(C(=O)[C@@H](NS(=O)(=O)c2ccc3cc(OC4CCCC4)ccc3c2)C(F)(F)c2ccc(Br)cc2)C1 [Compound 140-1, N—((R)-3-((S)-3-aminopyrrolidin-1-yl)-1-(4-bromophenyl)-1,1-difluoro-3-oxopropan-2-yl)-6-(cyclopentyloxy)naphthalene-2-sulfonamide] |
| 1 to 10 | NC1CCN(C(=O)[C@@H](NC(=O)[C@H](O)c2ccc(OCC3CCCCC3)cc2)C(F)(F)c2ccc(-c3ccc(Cl)cc3)cc2)CC1 [Compound 141-1, (R)—N—((R)-3-(4-aminopiperidin-1-yl)-1-(4′-chloro-[1,1′-biphenyl]-4-yl)-1,1-difluoro-3-oxopropan-2-yl)-2-(4-(cyclohexylmethoxy)phenyl)-2-hydroxyacetamide trifluoroacetate] |
| 1 to 10 | NC1CCN(C(=O)[C@@H](NC(=O)[C@@H](O)c2ccc(OCC3CCCCC3)cc2)C(F)(F)c2ccc(-c3ccc(Cl)cc3)cc2)CC1 [Compound 141-3, (S)—N—((R)-3-(4-aminopiperidin-1-yl)-1-(4′-chloro-[1,1′-biphenyl]-4-yl)-1,1-difluoro-3-oxopropan-2-yl)-2-(4-(cyclohexylmethoxy)phenyl)-2-hydroxyacetamide trifluoroacetate] |
